Results published in ChEMBL document CHEMBL1201862, “PubChem BioAssay data set” (2004).
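Dose response: 5 concentrations. Exposure: 48 h. Format: 96-well plates. Endpoint: linear interpolation; highest concentration if not reached. GI50: concentration for 50% inhibition of growth.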 Calls of active or inactive are those of the source. Rule as the data show it: active = GI50 up to about 1.1 µM and inactive = higher.

Columns and labels:
Test in all cases: NCI tumour cell line growth inhibition, 48 h
[1] = system: ACHN
[2] = system: HCT-116
[3] = system: EKVX
[4] = system: NCI-H226
[5] = system: HL-60
[6] = system: U-251
[7] = system: SR
[8] = system: SK-MEL-28
[9] = system: SF-268
[10] = system: KM12
[11] = system: NCI-H23
[12] = system: MCF7
[13] = system: Hs-578T
[14] = system: CAKI-1
[15] = system: SF-295
[16] = system: CCRF-CEM
[17] = system: SK-OV-3
[18] = system: UACC-62
[19] = system: OVCAR-3
[20] = system: TK-10

Measured: GI50

CN(CC(=O)O)Cc1c[nH]c2ccccc12
inactive: [1] > 100 µM | [2] > 100 µM | [3] > 100 µM | [4] > 100 µM | [5] > 100 µM | [6] > 100 µM | [7] > 100 µM | [8] > 100 µM | [9] > 100 µM | [10] > 100 µM | [11] > 100 µM | [12] > 100 µM | [13] > 100 µM | [14] > 100 µM | [15] > 100 µM | [16] > 100 µM | [17] > 100 µM | [18] > 100 µM | [19] > 100 µM | [20] > 100 µM

CC(=O)c1c(SCCN2CCOCC2)n(-c2ccccc2)c(=S)n(-c2ccccc2)c1=O
inactive: [1] 14.8 µM | [2] 16.1 µM | [3] 48.2 µM | [4] > 53.1 µM | [5] 28.5 µM | [6] 31.2 µM | [7] 28.3 µM | [8] 20.9 µM | [9] 20.2 µM | [10] > 39.7 µM | [11] 27.6 µM | [12] 2.21 µM | [13] 39.7 µM | [14] 24.3 µM | [15] > 62.7 µM | [16] 10.8 µM | [17] > 48.6 µM | [18] 15.5 µM | [19] 14.8 µM | [20] 17.2 µM

CC(C)c1ccc(/C=C2/C=C(c3ccc4ccccc4c3)OC2=O)cc1
inactive: [1] 38.4 µM | [2] 68.4 µM | [3] 40 µM | [4] 73.5 µM | [5] 19.4 µM | [6] 39.6 µM | [7] 5.94 µM | [8] 55.5 µM | [9] > 100 µM | [10] 62.1 µM | [11] 38.7 µM | [12] 88.5 µM | [13] > 75.2 µM | [14] > 82.4 µM | [15] > 94.6 µM | [16] 2.56 µM | [17] > 100 µM | [18] 35.4 µM | [19] 60 µM | [20] > 70.3 µM

COc1ccc(C=O)cc1OS(=O)(=O)C(F)(F)C(F)(F)C(F)(F)C(F)(F)F
inactive: [1] 44.5 µM | [2] 27.2 µM | [3] 33.3 µM | [4] > 100 µM | [5] 8.75 µM | [6] 22.9 µM | [7] 6.27 µM | [8] 24.4 µM | [9] 26.5 µM | [10] 28.4 µM | [11] 32.1 µM | [12] 26.1 µM | [13] 22.6 µM | [14] 40.3 µM | [15] 22.1 µM | [16] 14.8 µM | [17] 30.4 µM | [18] 21.4 µM | [19] 27 µM | [20] > 49.5 µM

CC(=O)N(C(C)=O)n1c(Cc2ccc(Cl)cc2)n[nH]c1=O
inactive: [1] > 100 µM | [2] > 100 µM | [3] > 100 µM | [4] > 100 µM | [5] > 100 µM | [6] > 100 µM | [7] > 100 µM | [8] > 100 µM | [9] > 100 µM | [10] > 100 µM | [11] > 100 µM | [12] > 100 µM | [13] > 100 µM | [14] > 100 µM | [15] > 64.4 µM | [16] > 100 µM | [17] > 100 µM | [18] > 100 µM | [19] > 100 µM | [20] > 100 µM

Cc1cc(=O)[nH]c(-n2[nH]c3c(c2=O)CCCC3)n1
inactive: [1] 49.4 µM | [2] 41.9 µM | [3] 58.2 µM | [4] > 100 µM | [5] 50.5 µM | [6] 58.5 µM | [7] 63.1 µM | [8] 45.7 µM | [9] 28.2 µM | [10] > 100 µM | [11] 95.9 µM | [12] 63 µM | [13] 92.9 µM | [14] 70.1 µM | [15] 46 µM | [16] 34.5 µM | [17] 93.1 µM | [18] 39.2 µM | [20] > 100 µM

Nc1cccc(/C=C/CN2CCN(CCOC(c3ccccc3)c3ccccc3)CC2)c1
inactive: [1] 17.9 µM | [2] 12.5 µM | [3] 16.4 µM | [4] 21.2 µM | [5] 5.05 µM | [6] 14.6 µM | [7] 4.61 µM | [8] 14 µM | [9] 17.7 µM | [10] 11.2 µM | [11] 16.1 µM | [12] 13.8 µM | [13] 21.8 µM | [14] 19.8 µM | [15] 17.4 µM | [16] 9.98 µM | [17] 14.1 µM | [18] 17.4 µM | [19] 15.6 µM | [20] 15.8 µM
